Measured values: US20090093517A1, “BIS1,2,3,4-TETRAHYDROISOQUINOLINE DERIVATIVES AND THEIR USES AS PHARMACEUTICALS” (UNIVERSITE DE LIEGE, priority 2006, published 2009)
Counter-ions that a name gives are not always drawn.

Tested on: apamin-sensitive sites of the SK channels
Assay: Competition binding between 125I-apamin and bis-tetrahydroisoquinoline derivatives on rat cortical synaptosomes
Conditions: for % of 125I-apamin displaced at 10 μM: 10 μM compound, ±10 pM 125I-apamin, rat cortical synaptosomes, 1 h at 0° C.; for Ki: separated stereoisomers, rat cortical apamin sensitive sites, 125I-apamin
Method: These experiments are used to evaluate the potency of the bis-tetrahydroisoquinoline derivatives to interact with the apamin-sensitive sites of the SK channels, the selected target for which a blockade is expected to be useful in the treatment of Alzheimer's disease, Parkinson's disease, schizophrenia, cognitive dysfunction, or depression. Two reference compounds are also tested for comparison
Rats (male Wistar, ±250 g) were killed by decapitation and the brains were quickly removed and kept on ice during dissection. Crude cortex was dispersed in 0.32 M sucrose by using a Pottero homogenizer. After a first centrifugation at 1500×g for 10 min, the supernatant was centrifuged at 25000×g for 10 min. The resulting pellet was dispersed in 5 mL 0.32 M sucrose to be aliquoted. Protein concentration was determined by the method of Hartree with bovine serum albumin as a standard.^36
The buffer consisted of a 10 mM Tris-HCl (pH 7.5) solution containing 5.4 mM KCl and 0.1% bovine serum albumin. The radioligand was ^125I-apamin (Perkin-Elmer, Specific activity 81.4 TBq mmol^−1). Glass fibre filters (Whatman GF/C) used in these experiments were coated for 1 h in 0.5% polyethylenimine and then washed with 2.5 mL of the ice-cold buffer just before use. Binding experiments were always terminated as follows. Aliquots were filtered under reduced pressure through Whatman filters. Filters were rapidly washed twice with 2.5 mL of buffer. The radioactivity remaining on the filter was evaluated with a Packard Tri-Carb 1600TR liquid scintillation analyser with an efficacy of 69%. ^125I-apamin binding to the filters was also estimated in the absence of synaptosomes. This binding was also substracted from the total binding. Curve fitting was carried out using GraphPad Prism.
Saturation Binding Experiments—Synaptosomes (0.2 mg of protein/mL) were incubated with increasing concentrations of ^125I-apamin (25 μL) with 975 μL of incubation buffer for 1 h at 0° C. Samples were then filtered on Whatman GF/C filter and the radioactivity was measured as described above. Non specific binding was determined in parallel experiments in the presence of an excess of unlabeled apamin (0.1 μM) and subtracted from the total binding to obtain the specific binding.
Competition Experiments between ^125I-apamin and Bis-tetrahydroisoquinoline derivatives—Synaptosomes (0.2 mg of protein/mL) were incubated for 1 h at 0° C. with ±10 pM of ^125I-apamin (25 μL) and nine concentrations of bis-tetrahydroisoquinoline derivatives (10^−4 to 10^−7 M). Non specific binding was determined in the presence of an excess of unlabeled apamin (0.1 μM). Samples were then filtered on Whatman filter and the radioactivity was measured as described above.

m-bis[1-(6,7,8-trimethoxy-2-methyl-1,2,3,4-tetrahydroisoquinolyl)]-xylene hydrochloride [Compound 4q]
% of 125I-apamin displaced at 10 μM: 60%

COc1cc2c(cc1OC)C(CCCC1c3cc(OC)c(OC)cc3CCN1C)N(C)CC2 (stereo not shown) [Compound 4d E1, 1,3-bis[1-(6,7-dimethoxy-2-methyl-1,2,3,4-tetrahydroisoquinolyl)]-propane hydrochloride]
Ki / potential to interact with apamin-sensitive sites compared with NML (comparison in words with N-Methyl-Laudanosine): Ki superior to NML
Ki compared with dequalinium (comparison in words with dequalinium): Ki quite similar to dequalinium
Ki (listed as 4d E1, hydrochloride): 0.293 ± 0.022 µM

p-bis[1-(6,7,8-trimethoxy-2-methyl-1,2,3,4-tetrahydroisoquinolyl)]-xylene [Compound 4r]
% of 125I-apamin displaced at 10 μM: 51%

COc1cc2c(c(OC)c1OC)C(CCCC1c3c(cc(OC)c(OC)c3OC)CCN1C)N(C)CC2.Cl (stereo not shown) [Compound 4g, 1,3-bis[1-(6,7,8-trimethoxy-2-methyl-1,2,3,4-tetrahydroisoquinolyl)]-propane hydrochloride]
% of 125I-apamin displaced at 10 μM: 70%

COc1cc2c(cc1OC)[C@@H](CCC[C@H]1c3cc(OC)c(OC)cc3CCN1C)N(C)CC2 [Compound 4d MESO, 1,3-bis[1-(6,7-dimethoxy-2-methyl-1,2,3,4-tetrahydroisoquinolyl)]-propane hydrochloride]
Ki: 1.42 ± 0.116 µM

o-bis[1-(2-methyl-1,2,3,4-tetrahydroisoquinolyl)]-xylene hydrochloride [Compound 4j]
% of 125I-apamin displaced at 10 μM: 19%

COc1cc2c(c(OC)c1OC)C(CCCCC1c3c(cc(OC)c(OC)c3OC)CCN1C)N(C)CC2 (stereo not shown) [Compound 4h E2, 1,4-bis[1-(6,7,8-trimethoxy-2-methyl-1,2,3,4-tetrahydroisoquinolyl)]-butane hydrochloride]
Ki (listed as 4h E2, hydrochloride): 0.746 ± 0.136 µM

COc1cc2c(cc1OC)C(CCCCC1c3cc(OC)c(OC)cc3CCN1C)N(C)CC2 (stereo not shown) [Compound 4e E2, 1,4-bis[1-(6,7-dimethoxy-2-methyl-1,2,3,4-tetrahydroisoquinolyl)]-butane hydrochloride]
Ki (listed as 4e E2, hydrochloride): 1.2 ± 0.114 µM

CN1CCc2ccccc2C1CCCCC1c2ccccc2CCN1C.Cl (stereo not shown) [Compound 4b, 1,4-bis[1-(2-methyl-1,2,3,4-tetrahydroisoquinolyl)]-butane hydrochloride]
% of 125I-apamin displaced at 10 μM: 16%

COc1cc2c(cc1OC)C(CCCCCC1c3cc(OC)c(OC)cc3CCN1C)N(C)CC2 (stereo not shown) [Compound 4f E2, 1,5-bis[1-(6,7-dimethoxy-2-methyl-1,2,3,4-tetrahydroisoquinolyl)]-pentane hydrochloride]
Ki (listed as 4f E2, hydrochloride): 1.3 ± 0.039 µM

o-bis[1-(6,7-dimethoxy-2-methyl-1,2,3,4-tetrahydroisoquinolyl)]-xylene hydrochloride [Compound 4m]
% of 125I-apamin displaced at 10 μM: 62%

COc1cc2c(c(OC)c1OC)C(CCCC1c3c(cc(OC)c(OC)c3OC)CCN1C)N(C)CC2 (stereo not shown) [Compound 4g E2, 1,3-bis[1-(6,7,8-trimethoxy-2-methyl-1,2,3,4-tetrahydroisoquinolyl)]-propane hydrochloride]
Ki (listed as 4g E2, hydrochloride): 1.1 ± 0.103 µM

COc1cc2c(c(OC)c1OC)C(CCCC1c3c(cc(OC)c(OC)c3OC)CCN1C)N(C)CC2 (stereo not shown) [Compound 4g E1, 1,3-bis[1-(6,7,8-trimethoxy-2-methyl-1,2,3,4-tetrahydroisoquinolyl)]-propane hydrochloride]
Ki (listed as 4g E1, hydrochloride): 1.74 ± 0.195 µM

m-bis[1-(6,7-dimethoxy-2-methyl-1,2,3,4-tetrahydroisoquinolyl)]-xylene hydrochloride [Compound 4n]
% of 125I-apamin displaced at 10 μM: 74%

COc1cc2c(cc1OC)C(CCCC1c3cc(OC)c(OC)cc3CCN1C)N(C)CC2 (stereo not shown) [Compound 4d E2, 1,3-bis[1-(6,7-dimethoxy-2-methyl-1,2,3,4-tetrahydroisoquinolyl)]-propane hydrochloride]
Ki (listed as 4d E2, hydrochloride): 1.89 ± 0.105 µM

COc1cc2c(cc1OC)C(Cc1cccc(CC3c4cc(OC)c(OC)cc4CCN3C)c1)N(C)CC2 (stereo not shown) [Compound 4m E1]
Ki (listed as 4m E1): 1.28 ± 0.055 µM

COc1cc2c(cc1OC)C(CCCCC1c3cc(OC)c(OC)cc3CCN1C)N(C)CC2.Cl (stereo not shown) [Compound 4e, 1,4-bis[1-(6,7-dimethoxy-2-methyl-1,2,3,4-tetrahydroisoquinolyl)]-butane hydrochloride]
% of 125I-apamin displaced at 10 μM: 72%

COc1cc2c(cc1OC)C(Cc1ccc(CC3c4cc(OC)c(OC)cc4CCN3C)cc1)N(C)CC2 (stereo not shown) [Compound 4n E2]
Ki (listed as 4n E2): 1.12 ± 0.046 µM

Cc1cc(N)c2ccccc2[n+]1CCCCCCCCCC[n+]1c(C)cc(N)c2ccccc21 [DQ+, Dequalinium, reference compound]
Ki: 0.221 ± 0.011 µM

COc1cc2c(cc1OC)C(CCCCCC1c3cc(OC)c(OC)cc3CCN1C)N(C)CC2 (stereo not drawn) [Compound 4f MESO, 1,5-bis[1-(6,7-dimethoxy-2-methyl-1,2,3,4-tetrahydroisoquinolyl)]-pentane hydrochloride]
Ki (listed as 4f MESO, hydrochloride): 0.731 ± 0.063 µM

COc1cc2c(cc1OC)C(CCCCCC1c3cc(OC)c(OC)cc3CCN1C)N(C)CC2.Cl (stereo not shown) [Compound 4f, 1,5-bis[1-(6,7-dimethoxy-2-methyl-1,2,3,4-tetrahydroisoquinolyl)]-pentane hydrochloride]
% of 125I-apamin displaced at 10 μM: 78%

m-Bis[1-(2-methyl-1,2,3,4-tetrahydroisoquinolyl)]-xylene hydrochloride [Compound 4k]
% of 125I-apamin displaced at 10 μM: 29%

COc1cc2c(cc1OC)C(Cc1cccc(CC3c4cc(OC)c(OC)cc4CCN3C)c1)N(C)CC2 (stereo not shown) [Compound 4m E2]
Ki (listed as 4m E2): 1.02 ± 0.027 µM

COc1cc2c(cc1OC)C(Cc1ccc(CC3c4cc(OC)c(OC)cc4CCN3C)cc1)N(C)CC2 (stereo not shown) [Compound 4n E1]
Ki (listed as 4n E1): 1.01 ± 0.144 µM

CN1CCc2ccccc2C1CCCC1c2ccccc2CCN1C.Cl (stereo not shown) [Compound 4a, 1,3-bis[1-(2-methyl-1,2,3,4-tetrahydrolisoquinolyl)]-propane hydrochloride]
% of 125I-apamin displaced at 10 μM: 13%

COc1cc2c(c(OC)c1OC)C(CCCCC1c3c(cc(OC)c(OC)c3OC)CCN1C)N(C)CC2.Cl (stereo not shown) [Compound 4h, 1,4-bis[1-(6,7,8-trimethoxy-2-methyl-1,2,3,4-tetrahydroisoquinolyl)]-butane hydrochloride]
% of 125I-apamin displaced at 10 μM: 86%

CN1CCc2ccccc2C1CCCCCC1c2ccccc2CCN1C.Cl (stereo not shown) [Compound 4c, 1,5-bis[1-(2-methyl-1,2,3,4-tetrahydroisoquinolyl)]-pentane hydrochloride]
% of 125I-apamin displaced at 10 μM: 9%

COc1cc2c(c(OC)c1OC)C(CCCCC1c3c(cc(OC)c(OC)c3OC)CCN1C)N(C)CC2 (stereo not shown) [Compound 4h E1, 1,4-bis[1-(6,7,8-trimethoxy-2-methyl-1,2,3,4-tetrahydroisoquinolyl)]-butane hydrochloride]
Ki (listed as 4h E1, hydrochloride): 2.21 ± 0.156 µM

COc1ccc(C[C@H]2c3cc(OC)c(OC)cc3CC[N+]2(C)C)cc1OC [NML, N-methyl-laudanosine, reference compound]
% of 125I-apamin displaced at 10 μM: 54%

o-bis[1-(6,7,8-trimethoxy-2-methyl-1,2,3,4-tetrahydroisoquinolyl)]-xylene hydrochloride [Compound 4p]
% of 125I-apamin displaced at 10 μM: 28%

p-bis[1-(2-methyl-1,2,3,4-tetrahydroisoquinolyl)]-xylene hydrochloride [Compound 4l]
% of 125I-apamin displaced at 10 μM: 27%

COc1cc2c(cc1OC)[C@@H](Cc1ccc(C[C@H]3c4cc(OC)c(OC)cc4CCN3C)cc1)N(C)CC2 [Compound 4n MESO]
Ki: 0.566 ± 0.026 µM
